This passage reports Cytotoxicity activity results from US20230340012A1, “NATURAL AND SYNTHETIC COMPOUNDS FOR TREATING CANCER AND OTHER DISEASES” (PACIFIC ARROW LIMITED, priority 2009, published 2023).

The test system of this data set is cancer cells. Description: MTT cytotoxic assay of esterification products (Cytotoxicity activity). Particulars: MTT cytotoxic assay, isolated esterification products of E4A. The class given is cell-based, human. The source says:
The peaks, fractions and compounds are selected according to the activities of times studies and the changes of peaks. Selecting the HPLC fractions for isolation is according to the cytotoxic activity of the reaction product obtained at a specific time. The compounds having strong to weak activities are selected and isolated. Selecting the HPLC fractions for isolation may be according to the cytotoxic activity of times studies and the change of peaks. The anti-cancer activities are the MTT studies of bone (U2OS), lung (H460), bladder (HTB-9), ovary (ES2), colon (HCT116), pancreas (Capan), ovary(OVCAR3), prostate (DU145), skin (SK-Mel-5), mouth (KB), kidney (A498), breast (MCF-7), liver (HepG2), brain (T98G), leukemia (K562), cervix (HeLa).
Esterification of compound (A), (B), (C), (D1), (D2), (E), (F), (G), (H1), (H2), E4A, E4A2Y, (P1), P(2), terpene, isoprene, triterpenes, hydroxylated triterpenes, with acyl halide, wherein the halide comprise chloride, bromide, fluoride and iodide, wherein the acyl halide comprise acyl chloride, wherein acyl chloride comprise tigloyl chloride, angeloyl chloride, acetyl chloride, crotonoyl chloride, 3,3-Dimethylacryloyl chloride, senecioyl chloride, cinnamoyl chloride, pentenoyl chloride, hexanoyl chloride, benzoyl chloride, ethylbutyryl chloride, propionyl chloride, 2-propenoyl chloride, isobutyryl chloride, butyryl chloride, (2E)-2-pentenoyl chloride, 4-Pentenoyl chloride, 5-hexenoyl chloride, heptanoyl chloride, octanoyl chloride, nonanoyl chloride, decanoyl chloride, Lauroyl chloride, myristoyl chloride, oleoyl chloride. The compounds vary in composition when the time or temperature of the reaction is changed. The peaks, fractions and compounds are selected according to the activities of times studies and the changes of peaks. The compounds having strong to weak activities are selected and isolated. The anti-cancer activities (Cytotoxic Assay) are the MTT studies of bone (U2OS), lung (H460), bladder(HTB-9), ovary (ES2), colon (HCT116), pancreas (Capan), ovary(OVCAR3), prostate (DU145), skin (SK-Mel-5), mouth (KB), kidney (A498), breast (MCF-7), liver (HepG2), brain (T98G), leukemia (K562), cervix (HeLa). The active esterification products are purified with HPLC. The reaction product of mixtures and individual compounds are tested with MTT Cytotoxic Assay. Details of method are in Experiment 3 of the present application. A second esterification of compound can be selected from the above experiment results to produce new active compounds. A partial esterification compound is selected from the above experiments to perform a second or repeated with a third esterification with different acyl chloride in order to produce new active compounds with the experiments in the present application.
Method: 40 mg of triterpene core (fraction IV) was dissolved in 1 ml pyridine in a 50 ml tube. Reaction is started by adding 0.2 ml of acyl chloride (Tigloyl chloride, angeloyl chloride, Acetyl chloride, Crotonoyl chloride, 3,3-Dimethylacryloyl chloride(senecioyl chloride), Cinnamoyl chloride, Pentenoyl chloride, Hexanoyl chloride, benzoyl chloride or Ethylbutyryl chloride). The mixture is stirred for 5 sec, 1 min, 2 min, 5 min, 10 min, 30 min, 1 hr, 2 hr, 18 hr, 2 days or 3 days at 0° C., 25° C. or 75° C. temperature. At the end of reaction, 5 ml of 2N HCl or 1 M NaHCO3 is added to the reaction mixture. The solution is then extracted 3 times with 10 ml of ethyl acetate which is then evaporated under vacuum and at 45C and lyophilization. The reaction product is dissolved in 80% acetonitrile - 0.005% Trifluoroacetic acid or DMSO; and was separated with HPLC. Selecting the HPLC fractions for isolation is according to the cytotoxic activity of the reaction product obtained at a specific reaction time. The active esterification products are purified with HPLC. The reaction product of mixtures and individual compounds are tested with MTT cytotoxic assay. Structures are determined with NMR. […]

Molecules are shown by their SMILES.

As for `CC=C(C)C(=O)OCC1(C)C(O)CCC2(C)C1CCC1(C)C2CC=C2C3CC(C)(C)C(O)C(O)C3(CO)C(O)CC21C` (stereo not shown) [Compound A1], the Cytotoxicity activity entry is recorded as “moderate”. To `CC=C(C)C(=O)OCC12C(O)CC3(C)C(=CCC4C5(C)CCC(O)C(C)(CO)C5CCC43C)C1CC(C)(C)C(O)C2O` (stereo not shown) [Compound A2] belongs “moderate”; to `CC=C(C)C(=O)OCC1(C)C(O)CCC2(C)C1CCC1(C)C2CC=C2C3CC(C)(C)C(O)C(O)C3(COC(=O)C(C)=CC)C(O)CC21C` (stereo not shown) [Compound A3], “strong”; to `CC=C(C)C(=O)OCC1(C)C(O)CCC2(C)C1CCC1(C)C2CC=C2C3CC(C)(C)C(OC(=O)C(C)=CC)C(O)C3(COC(=O)C(C)=CC)C(O)CC21C` (stereo not shown) [Compound A4], “moderate”. Then `CC=C(C)C(=O)OCC1(C)C(O)CCC2(C)C1CCC1(C)C2CC=C2C3CC(C)(C)C(O)C(OC(=O)C(C)=CC)C3(COC(=O)C(C)=CC)C(O)CC21C` (stereo not shown) [Compound A5], with “moderate”; and `CC=C(C)C(=O)OCC1(C)C(OC(=O)C(C)=CC)CCC2(C)C1CCC1(C)C2CC=C2C3CC(C)(C)C(O)C(O)C3(COC(=O)C(C)=CC)C(O)CC21C` (stereo not shown) [Compound A6], with “moderate”.

For the molecule `CC=C(C)C(=O)OCC1(C)C(O)CCC2(C)C1CCC1(C)C2CC=C2C3CC(C)(C)C(O)C(O)C3(COC(=O)C(C)=CC)C(OC(=O)C(C)=CC)CC21C` (stereo not shown) [Compound A7], the Cytotoxicity activity result is “moderate”. To `CC=C(C)C(=O)OCC1(C)C(O)CCC2(C)C1CCC1(C)C2CC=C2C3CC(C)(C)C(OC(=O)C(C)=CC)C(OC(=O)C(C)=CC)C3(COC(=O)C(C)=CC)C(O)CC21C` (stereo not shown) [Compound A8] belongs “weak”; to `CC=C(C)C(=O)OCC1(C)C(OC(=O)C(C)=CC)CCC2(C)C1CCC1(C)C2CC=C2C3CC(C)(C)C(O)C(OC(=O)C(C)=CC)C3(COC(=O)C(C)=CC)C(O)CC21C` (stereo not shown) [Compound A9], “weak”; to `CC=C(C)C(=O)OCC1(C)C(OC(=O)C(C)=CC)CCC2(C)C1CCC1(C)C2CC=C2C3CC(C)(C)C(O)C(O)C3(COC(=O)C(C)=CC)C(OC(=O)C(C)=CC)CC21C` (stereo not shown) [Compound A10], “weak”. With `CC=C(C)C(=O)OCC1(C)C(OC(=O)C(C)=CC)CCC2(C)C1CCC1(C)C2CC=C2C3CC(C)(C)C(OC(=O)C(C)=CC)C(O)C3(COC(=O)C(C)=CC)C(O)CC21C` (stereo not shown) [Compound A11], the Cytotoxicity activity result is recorded as “weak”. To `CC=C(C)C(=O)OCC1(C)C(O)CCC2(C)C1CCC1(C)C2CC=C2C3CC(C)(C)C(O)C(OC(=O)C(C)=CC)C3(COC(=O)C(C)=CC)C(OC(=O)C(C)=CC)CC21C` (stereo not shown) [Compound A12] belongs “weak”; to `CC=C(C)C(=O)OCC1(C)C(O)CCC2(C)C1CCC1(C)C2CC=C2C3CC(C)(C)C(OC(=O)C(C)=CC)C(O)C3(COC(=O)C(C)=CC)C(OC(=O)C(C)=CC)CC21C` (stereo not shown) [Compound A13], “weak”.

As for `CC=C(C)C(=O)OCC1(C)C(OC(=O)C(C)=CC)CCC2(C)C1CCC1(C)C2CC=C2C3CC(C)(C)C(O)C(OC(=O)C(C)=CC)C3(COC(=O)C(C)=CC)C(O)CC21C` (stereo not shown) [Compound A14], the Cytotoxicity activity result is “weak”. For the molecule `CC=C(C)C(=O)OCC1(C)C(OC(=O)C(C)=CC)CCC2(C)C1CCC1(C)C2CC=C2C3CC(C)(C)C(OC(=O)C(C)=CC)C(OC(=O)C(C)=CC)C3(COC(=O)C(C)=CC)C(O)CC21C` (stereo not shown) [Compound A15], the Cytotoxicity activity result was “weak”. To `CC=C(C)C(=O)OCC1(C)C(O)CCC2(C)C1CCC1(C)C2CC=C2C3CC(C)(C)C(OC(=O)C(C)=CC)C(OC(=O)C(C)=CC)C3(COC(=O)C(C)=CC)C(OC(=O)C(C)=CC)CC21C` (stereo not shown) [Compound A16] belongs “weak”. To `CC=C(C)C(=O)OCC1(C)C(OC(=O)C(C)=CC)CCC2(C)C1CCC1(C)C2CC=C2C3CC(C)(C)C(OC(=O)C(C)=CC)C(O)C3(COC(=O)C(C)=CC)C(OC(=O)C(C)=CC)CC21C` (stereo not shown) [Compound A17] belongs “weak”; to `CC=C(C)C(=O)OCC1(C)C(OC(=O)C(C)=CC)CCC2(C)C1CCC1(C)C2CC=C2C3CC(C)(C)C(O)C(OC(=O)C(C)=CC)C3(COC(=O)C(C)=CC)C(OC(=O)C(C)=CC)CC21C` (stereo not shown) [Compound A18], “weak”; to `CC=C(C)C(=O)OCC1(C)C(OC(=O)C(C)=CC)CCC2(C)C1CCC1(C)C2CC=C2C3CC(C)(C)C(OC(=O)C(C)=CC)C(OC(=O)C(C)=CC)C3(COC(=O)C(C)=CC)C(OC(=O)C(C)=CC)CC21C` (stereo not shown) [Compound A19], “none”. `CC=C(C)C(=O)OCC12C(O)CC3(C)C(=CCC4C5(C)CCC(O)C(C)(CO)C5CCC43C)C1CC(C)(C)C(OC(=O)C(C)=CC)C2OC(=O)C(C)=CC` (stereo not shown) [Compound A20]: the Cytotoxicity activity result is recorded as “moderate”. As for `CC=C(C)C(=O)OCC1(C)C(O)CCC2(C)C1CCC1(C)C2CC=C2C3CC(C)(C)C(OC(=O)C(C)=CC)C(OC(=O)C(C)=CC)C3(CO)C(O)CC21C` (stereo not shown) [Compound A21], the Cytotoxicity activity result was “moderate”. On to `CC=C(C)C(=O)OC1C(OC(=O)C(C)=CC)C2(CO)C(OC(=O)C(C)=CC)CC3(C)C(=CCC4C5(C)CCC(O)C(C)(CO)C5CCC43C)C2CC1(C)C` (stereo not shown) [Compound A22], for which the Cytotoxicity activity result is recorded as “moderate”. Then `CC=C(C)C(=O)OC1C(OC(=O)C(C)=CC)C2(CO)C(O)CC3(C)C(=CCC4C5(C)CCC(OC(=O)C(C)=CC)C(C)(CO)C5CCC43C)C2CC1(C)C` (stereo not shown) [Compound A23], with “moderate”; and `CC=C(C)C(=O)OC1C(OC(=O)C(C)=CC)C2(CO)C(O)CC3(C)C(=CCC4C5(C)CCC(O)C(C)(CO)C5CCC43C)C2CC1(C)C` (stereo not shown) [Compound A24], with “moderate”. Turning to `CC=C(C)C(=O)OCC12C(O)CC3(C)C(=CCC4C5(C)CCC(O)C(C)(CO)C5CCC43C)C1CC(C)(C)C(OC(=O)C(C)=CC)C2O` (stereo not shown) [Compound A25], the Cytotoxicity activity entry is on record as “moderate”.

On to `CC=C(C)C(=O)OCC12C(O)CC3(C)C(=CCC4C5(C)CCC(O)C(C)(CO)C5CCC43C)C1CC(C)(C)C(O)C2OC(=O)C(C)=CC` (stereo not shown) [Compound A26], for which the Cytotoxicity activity result is reported as “moderate”. Then `CC=C(C)C(=O)OCC12C(O)CC3(C)C(=CCC4C5(C)CCC(OC(=O)C(C)=CC)C(C)(CO)C5CCC43C)C1CC(C)(C)C(O)C2O` (stereo not shown) [Compound A27], with “moderate”; and `CC=C(C)C(=O)OCC12C(OC(=O)C(C)=CC)CC3(C)C(=CCC4C5(C)CCC(O)C(C)(CO)C5CCC43C)C1CC(C)(C)C(O)C2O` (stereo not shown) [Compound A28], with “moderate”.

Take `CC=C(C)C(=O)OCC1(C)C(O)CCC2(C)C1CCC1(C)C2CC=C2C3CC(C)(C)C(OC(=O)C(C)=CC)C(O)C3(CO)C(O)CC21C` (stereo not shown) [Compound A29]: the Cytotoxicity activity entry is given as “moderate”. To `CC=C(C)C(=O)OCC1(C)C(O)CCC2(C)C1CCC1(C)C2CC=C2C3CC(C)(C)C(O)C(OC(=O)C(C)=CC)C3(CO)C(O)CC21C` (stereo not shown) [Compound A30] belongs “moderate”; to `CC=C(C)C(=O)OCC1(C)C(OC(=O)C(C)=CC)CCC2(C)C1CCC1(C)C2CC=C2C3CC(C)(C)C(O)C(O)C3(CO)C(O)CC21C` (stereo not shown) [Compound A31], “moderate”. Then `CC=C(C)C(=O)OCC1(C)C(O)CCC2(C)C1CCC1(C)C2CC=C2C3CC(C)(C)C(O)C(O)C3(CO)C(OC(=O)C(C)=CC)CC21C` (stereo not shown) [Compound A32], with “moderate”; and `CC(C)=CC(=O)OCC1(C)C(O)CCC2(C)C1CCC1(C)C2CC=C2C3CC(C)(C)C(O)C(O)C3(CO)C(O)CC21C` (stereo not shown) [Compound B1], with “moderate”; and `CC(C)=CC(=O)OCC12C(O)CC3(C)C(=CCC4C5(C)CCC(O)C(C)(CO)C5CCC43C)C1CC(C)(C)C(O)C2O` (stereo not shown) [Compound B2], with “moderate”.
